This is an account of results in publication PMC6219668 (Oncotarget, 2018).

The test system of series [1] is CAMA-1. Kind of series: cells. The following applies: Homo sapiens; CAMA-1, ER+ BC, dominant CDK4; read-out: IC50, mean ± SD. Format: cell-based.
Series [2] relates to MCF-7. Kind of series: cells. In kind it is cell-based. The following applies: Homo sapiens, MCF7; MCF-7, ER+ BC, dominant CDK4; read-out: IC50, mean ± SD.
Series [3] has as its system SEM cells. Kind of series: cells. Format: cell-based. The following applies: ALL, dominant CDK6, read-out: IC50, mean ± SD.
Series [4] has as its system MOLM-13. Kind of series: cells. In kind it is cell-based. The following applies: Homo sapiens; MOLM-13, AML, dominant CDK6; read-out: IC50, mean ± SD.
Series [5] concerns the target T1, CDK4 (Homo sapiens, UniProt P11802).
T1 construct: purchased DiscoveRx (KINOMEscan)
Kind of series: KINOMEscan binding assay. The following applies: Supplementary Table 1A.

The test system of series [6] is HBCx-2. Format: in vivo. Particulars: HBCx-2, Breast, TNBC, Rb absent; 125 mg/kg bid × 21.
Series [7] concerns HBCx-15. In kind it is in vivo. The following applies: HBCx-15, Breast, TNBC, Rb absent; 125 mg/kg bid × 21.
Series [8] relates to HBRX1600. Format: in vivo. Particulars: HBRX1600, Breast, TNBC, Rb present; 250 mg/kg qd.
In series [9] the test system is HBCx-8. In kind it is in vivo. Particulars: HBCx-8, Breast, TNBC, Rb present; 125 mg/kg bid × 21.
Series [10] concerns HPAX1317. In kind it is in vivo. Particulars: HPAX1317, Pancreatic, Rb present; 250 mg/kg qd.
Series [11] concerns BT-483. Nature of the series: cells. In kind it is cell-based. Particulars: Homo sapiens, BT-483, 72 h.
The subject of series [12] is SNU-761. Nature of the series: cells. The following applies: SNU-761, 72 h. In kind it is cell-based.
Series [13] deals with SNU-387. Kind of series: cells. Format: cell-based. The following applies: Homo sapiens, SNU-387, 72 h.
Series [14] concerns HCC-4006. Kind of series: cells. In kind it is cell-based. The following applies: Homo sapiens, HCC4006; HCC-4006, 72 h.
In series [15] the test system is COR-L105. Nature of the series: cells. In kind it is cell-based. Particulars: Homo sapiens, COR-L105, 72 h.
In series [16] the test system is NCI-H2030. Nature of the series: cells. In kind it is cell-based. The following applies: Homo sapiens, NCI-H2030, 72 h.
Series [17] relates to NCI-H2228. Nature of the series: cells. Format: cell-based. Particulars: Homo sapiens, NCI-H2228, 72 h.
Series [18] has as its system NCI-H3255. Nature of the series: cells. Format: cell-based. The following applies: Homo sapiens, NCI-H3255, 72 h.
Series [19] has as its system KYSE150. Nature of the series: cells. Particulars: Homo sapiens, KYSE-150; KYSE150, 72 h. In kind it is cell-based.
Series [20] has as its system OE33. Nature of the series: cells. Format: cell-based. Particulars: Homo sapiens, OE33, 72 h.
In series [21] the test system is TE-10. Kind of series: cells. Format: cell-based. The following applies: Homo sapiens, TE-10, 72 h.
Series [22] has as its system TE-8. Kind of series: cells. Particulars: Homo sapiens, TE-8, 72 h. Format: cell-based.
Series [23] relates to NB1. Kind of series: cells. Format: cell-based. The following applies: Homo sapiens, NB1, 72 h.
Series [24] has as its system SNU-387. Kind of series: cells. Format: cell-based. The following applies: Homo sapiens, SNU-387, 72 h. The source holds these as a separate data set.
Series [25] has as its system MGH051. Nature of the series: cells. In kind it is cell-based. Particulars: MGH051, 72 h.
Series [26] has as its system NCI-H3122. Kind of series: cells. In kind it is cell-based. Particulars: Homo sapiens, NCI-H3122, 72 h.
For series [27], the system named is NCI-H1792. Nature of the series: cells. Format: cell-based. The following applies: Homo sapiens, NCI-H1792, 72 h.
Series [28] concerns NCI-H1573. Kind of series: cells. Format: cell-based. Particulars: Homo sapiens, NCI-H1573, 72 h.
For series [29], the system named is HCC-4006. Kind of series: cells. In kind it is cell-based. Particulars: Homo sapiens, HCC4006; HCC-4006, 72 h. This is another data set of the same source.
Series [30] deals with COR-L105. Kind of series: cells. Format: cell-based. The following applies: Homo sapiens, COR-L105, 72 h. This is another data set of the same source.
Series [31] relates to NCI-H441. Nature of the series: cells. In kind it is cell-based. Particulars: Homo sapiens, NCI-H441, 72 h.
The test system of series [32] is PC-14. Kind of series: cells. Format: cell-based. The following applies: Homo sapiens, PC-14, 72 h.
The test system of series [33] is NCI-H2030. Kind of series: cells. In kind it is cell-based. Particulars: Homo sapiens, NCI-H2030, 72 h. This is another data set of the same source.
Series [34] concerns KYSE150. Kind of series: cells. In kind it is cell-based. Particulars: Homo sapiens, KYSE-150; KYSE150, 72 h. This is another data set of the same source.
Series [35] deals with KYSE450. Nature of the series: cells. Format: cell-based. The following applies: Homo sapiens, KYSE-450; KYSE450, 72 h.
Series [36] has as its system LnCAP. Nature of the series: cells. Format: cell-based. The following applies: Homo sapiens, 72 h.
Series [37] concerns SK-MEL-28. Kind of series: cells. Format: cell-based. Particulars: Homo sapiens, SK-MEL-28, 72 h.
Series [38] relates to SK-MEL-30. Nature of the series: cells. Format: cell-based. The following applies: Homo sapiens, SK-MEL-30, 72 h.
The subject of series [39] is CDK1/cyclin B. Particulars: cited from earlier work.
Series [40] relates to CDK9/cyclin T1. Particulars: cited from earlier work.
The conditions of series [41]: humans, 600 mg once daily; data not shown; cited from earlier work.
Series [42] can be described thus: in vivo. The following applies: male, rat, po.

T1 sequence (P11802 whole entry): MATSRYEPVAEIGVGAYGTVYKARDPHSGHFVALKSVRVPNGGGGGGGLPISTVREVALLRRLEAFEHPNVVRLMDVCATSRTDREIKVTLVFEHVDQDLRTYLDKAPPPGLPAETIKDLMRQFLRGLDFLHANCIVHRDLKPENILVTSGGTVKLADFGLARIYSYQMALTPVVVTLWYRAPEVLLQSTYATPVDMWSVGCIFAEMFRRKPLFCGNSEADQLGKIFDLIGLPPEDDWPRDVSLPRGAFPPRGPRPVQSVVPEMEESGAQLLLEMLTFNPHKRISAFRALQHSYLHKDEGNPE

Consider `CC(=O)c1c(C)c2cnc(Nc3ccc(N4CCNCC4)cn3)nc2n(C2CCCC2)c1=O` [Palbociclib, reference compound], for which the half-maximal inhibitory concentration (IC50) stood at 50 ± 24 µM in series [1], 30 ± 18 µM in series [2], 87 ± 28 µM in [3] and 47 ± 25 µM in [4].

On to `CN(C)C(=O)c1cc2cnc(Nc3ccc(N4CCNCC4)cn3)nc2n1C1CCCC1` [Ribociclib, 7-cyclopentyl-2-(5-piperazin-1-yl-pyridin-2-ylamino)-7H-pyrrolo[2,3-d]pyrimidine-6-carboxylic acid dimethylamide], for which the “affinity for CDK4, lower than that observed for abemaciclib” value in series [5] was roughly 10 fold. The T/C in series [6] is listed as 102; in [7], 108; in [8], 28; in [9], 10; in [10] it was 32. Further, the IC50 is greater than 10 µM in series [11]; 0.67 µM in [12]; 2.49 µM in series [13]; 0.87 µM in [14]; 1.92 µM in [15]; 8.33 µM in [16]. In addition, the IC50 in series [17] was greater than 10 µM; in series [18], greater than 10 µM; in series [19], 0.55 µM; in series [20] it was 0.63 µM; in series [21], 1.01 µM; in [22] it was 2.44 µM. Further, the half-maximal inhibitory concentration (IC50) in series [23] was 1.6 µM; in series [24] it was greater than 10 µM; in series [25], greater than 10 µM; in [26], 2 µM; in series [27], greater than 10 µM; in [28], greater than 10 µM. For the same compound, the IC50 in [29] is greater than 10 µM; in [30], greater than 10 µM; in series [31], greater than 10 µM; in series [32], greater than 10 µM; in series [33] it was greater than 10 µM; in [34], 6.7 µM. Further, the IC50 in [35] was greater than 10 µM; in series [36], 1 µM; in series [37], greater than 10 µM; in series [38] it was greater than 10 µM. Also, in [39], the “activity against CDK1/cyclin B” value is “far less active”. Besides, the “activity against CDK9/cyclin T1” value in [40] was “far less active”. For the same compound, in series [41], the “area under the concentration-time curve” value is recorded as ~22,000 ng/mL × h. In series [41], the maximum serum concentration is given as roughly 1700 ng/mL. The Cmax is 110 ng/mL in series [42] (10 mg/kg), 1740 ng/mL in series [42] (75 mg/kg) and 1680 ng/mL in [42] (150 mg/kg).
